{"source": "patent US12239660B2", "about": "“Therapeutic composition and methods” (Viscera Labs, Inc., priority 2018, dated 2025)", "origin": "cited, not measured here", "details": "in vivo, po", "data": [{"smiles": "O=C(O)c1cc(/N=N/c2ccc(S(=O)(=O)Nc3ccccn3)cc2)ccc1O", "note": "[sulfasalazin]", "values": [{"measurement": "drug released in the small intestine", "value": 12, "unit": "%"}]}]}
